One experiment deals with cytosolic PLA2. The experiment is described as follows: Semiquantitative RT-PCR of cytosolic PLA2 expression in HL-60 cells. Format: cell-based, human. The following applies: HL-60 cells (FIG. 9). The protocol: Cell culture. Human promyelocytic HL-60 cells and promonocytic U937 cells were grown in RPMI-1640 culture medium supplemented with 10% (v/v) heat-inactivated fetal calf serum, 2 mM L-glutamine, 100 units/ml penicillin and 24 μg/ml gentamicin. Mouse 3T3 fibroblasts were grown in Dulbecco's modified Eagle's medium (DMEM) supplemented with 10% (v/v) heat-inactivated fetal calf serum, 2 mM L-glutamine, 100 units/ml penicillin and 24 μg/ml gentamicin. Cells were incubated at 37° C. in a humidified atmosphere at 5% CO2 and 95% air.
Reverse transcriptase polymerase chain reaction (RT-PCR). Total RNA was extracted from human neutrophils and cell lines using TRIZOL reagent (GIBCO-BRL) following the manufacturer's instructions. RNA preparations were carefully checked by gel electrophoresis and found to be free of DNA contamination. For the RT reaction, total RNA (10 μg) was primed with oligo-dt and reverse-transcribed into cDNA with 30 units of M-MLV reverse transcriptase from Promega according to manufacturer's instructions in a final volume of 20 μL. The mixture was incubated at 37° C. for 90 min. The generated cDNA was used for the semi-quantitative RT-PCR and the β-actin gene was used as an internal control. […]

For experiment [1], the system named is PGE2 synthesis in human mucosal gastric biopsies. The experiment is described as follows: Ex vivo PGE2 synthesis in human mucosal gastric biopsies. The protocol:
The ability of the gastric mucosa to generate prostaglandins estimates total cyclooxygenase (COX) activity (COX-1 plus any COX-2). To measure ex vivo prostaglandin E2 (PGE2) synthesis, normal gastric mucosal biopsies were immediately placed in Ependorff tubes containing phosphate-buffered saline (PBS). […] Each mucosal gastric biopsy was cut into different pieces (about 1 mg weight) that were subsequently weighed and incubated in the absence or in the presence of the distinct agents indicated in the corresponding Table for 20 min at 37° C. in 200 μl Hepes-glucose buffer. Then cells were mucosal gastric samples were pelleted by centrifugation, lysed and intracellular PGE2 was measured using an enzyme immunoassay kit (Amersham Pharmacia Biotech, Buckinghamshire, UK) following the manufacturer's instructions. Prostaglandin synthesis is expressed as picograms of PGE2 synthesised per mg of tissue incubation. Each experiment corresponded to the use of one biopsy, in order to avoid variability among different biopsies. Normal volunteers without a previous pharmacological treatment were selected for these assays. The normal gastroduodenal mucosa was visually assessed by endoscopy.
Human mucosal gastric biopsies were cut into about 1 mg pieces, incubated with the indicted agents (10 μM) for 20 min at 37° C. in Hepes-glucose buffer, and then the intracellular content of PGE2 was determined as described in the Methods section. Untreated control samples were run in parallel. Data are shown as mean Values+S.D. from three independent experiments.

Consider `CCCCCCCCCCCCCCCCCCOCC(COP(=O)([O-])OCC[N+](C)(C)C)OC` (stereo not drawn) [IEC01, Edelfosine], for which the “mRNA expression of cytosolic PLA2” value in the experiment on cytosolic PLA2 was “did not affect”. The “pg PGE2/mg (weight)” value in experiment [1] (human mucosal gastric biopsies, agents 10 μM, 20 min at 37° C., Control 115 ± 26, mean ± S.D., three experiments) came out at 131 ± 29 pg PGE2/mg. In addition, in experiment [1] (normal mucosal gastric biopsies, ex vivo), the “effect on mucosal PGE2 synthesis (in words)” value is reported as “did not inhibit”.

The values above are taken from patent publication US6583127B1, “Use of etherlysophospholipids as antiinflammatory agents” (Inkeysa. SA, priority 1998, dated 2003).
